Results taken from ChEMBL document CHEMBL5380830, “Development and Therapeutic Implications of Tyrosine Kinase 2 Inhibitors” (J Med Chem, 2023).
Values belong to the molecule of their own block, whether it stands above or below them.

How the values were obtained:
JAK2/TYK2 [1] = biological target: T1, JAK2/TYK2 (Homo sapiens, UniProt O60674+P29597); experiment: Inhibition of JAK2/TYK2 signal transduction pathway in human PBMC cells assessed as IL-12 induced p-STAT4 level by AlphaLISA assay; assay type: cell-based
JAK2/TYK2 [2] = biological target: T1, JAK2/TYK2; experiment: Inhibition of JAK2/TYK2 signal transduction pathway in human PBMC cells assessed as IL-23 induced p-STAT4 level by AlphaLISA assay; assay type: cell-based
[3] = biological target: T2, Non-receptor tyrosine-protein kinase TYK2 (Homo sapiens, UniProt P29597); experiment: Binding affinity to His-tagged human recombinant TYK2 JH2 (556 to 871 residues) incubated for 10 hrs by microplate reader based analysis
[4] = biological target: T3, Tyrosine-protein kinase JAK2 (Homo sapiens, UniProt O60674); experiment: Inhibition of JAK2 in human TF-1 cells assessed as reduction of STAT5 phosphorylation by ELISA assay; assay type: cell-based
JAK2/TYK2 [5] = biological target: T1, JAK2/TYK2; experiment: Inhibition of JAK2/TYK2 in HEK-Blue IL-23 cells assessed as reduction in SEAP reporter gene expression incubated for 21 hrs by Quanti-blue assay; assay type: cell-based
JAK1/TYK2 = JAK1/TYK2 (Homo sapiens, UniProt P23458+P29597); experiment: Inhibition of JAK2/TYK2 in HEK293T cells co-expressing luciferase gene under control of ISRE assessed as reduction in IFNalpha expression incubated for 6 hrs by one-glo reagent based luciferase reporter gene assay; assay type: cell-based
[6] = biological target: T3, Tyrosine-protein kinase JAK2; experiment: Inhibition of JAK2 (unknown origin)
[7] = biological target: T2, Non-receptor tyrosine-protein kinase TYK2; experiment: Inhibition of TYK2 JH1 (unknown origin)
[8] = AUC in C57BL/6 mouse at 10 mg/kg, po by LC/MS-MS analysis; assay type: ADME, organism-based; parameters: dose 10 mg/kg, route po; details: in vivo
[9] = Cmax in C57BL/6 mouse at 10 mg/kg, po by LC/MS-MS analysis; assay type: ADME, organism-based; parameters: dose 10 mg/kg, route po; details: in vivo
[10] = biological target: T2, Non-receptor tyrosine-protein kinase TYK2; experiment: Inhibition of TYK2 JH2 (unknown origin)
[11] = biological target: T4, Tyrosine-protein kinase JAK3 (Homo sapiens, UniProt P52333); experiment: Inhibition of JAK3 (unknown origin)
T4 sequence (P52333 whole entry): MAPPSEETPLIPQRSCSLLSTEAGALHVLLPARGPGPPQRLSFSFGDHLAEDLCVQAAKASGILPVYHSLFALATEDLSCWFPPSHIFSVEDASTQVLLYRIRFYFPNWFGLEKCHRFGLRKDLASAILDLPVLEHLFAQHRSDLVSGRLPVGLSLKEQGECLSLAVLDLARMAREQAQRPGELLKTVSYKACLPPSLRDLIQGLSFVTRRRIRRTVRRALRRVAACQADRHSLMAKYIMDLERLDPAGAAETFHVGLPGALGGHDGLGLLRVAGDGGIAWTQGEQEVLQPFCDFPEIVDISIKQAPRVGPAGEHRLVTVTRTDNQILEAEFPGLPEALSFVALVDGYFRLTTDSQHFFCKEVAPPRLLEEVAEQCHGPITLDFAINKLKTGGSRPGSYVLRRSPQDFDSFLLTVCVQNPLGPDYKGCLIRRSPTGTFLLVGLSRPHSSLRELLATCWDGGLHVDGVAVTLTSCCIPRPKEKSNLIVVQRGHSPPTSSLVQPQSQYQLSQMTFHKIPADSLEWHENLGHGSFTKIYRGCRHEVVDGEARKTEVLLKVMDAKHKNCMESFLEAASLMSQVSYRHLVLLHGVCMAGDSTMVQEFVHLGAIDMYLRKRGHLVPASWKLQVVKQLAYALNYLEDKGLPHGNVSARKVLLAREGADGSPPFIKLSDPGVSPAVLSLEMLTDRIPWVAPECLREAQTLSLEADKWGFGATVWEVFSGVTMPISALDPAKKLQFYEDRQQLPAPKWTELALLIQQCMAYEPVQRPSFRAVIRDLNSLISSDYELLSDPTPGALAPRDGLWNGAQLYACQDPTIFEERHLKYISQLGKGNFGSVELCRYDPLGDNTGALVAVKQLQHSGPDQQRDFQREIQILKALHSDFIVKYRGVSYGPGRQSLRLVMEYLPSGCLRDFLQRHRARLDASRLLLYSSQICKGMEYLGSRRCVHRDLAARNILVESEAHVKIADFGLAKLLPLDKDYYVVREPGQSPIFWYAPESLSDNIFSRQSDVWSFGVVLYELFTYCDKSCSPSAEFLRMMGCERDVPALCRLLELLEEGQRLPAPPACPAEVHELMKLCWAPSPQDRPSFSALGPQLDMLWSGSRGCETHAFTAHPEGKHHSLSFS

[12] = biological target: T5, Tyrosine-protein kinase JAK1 (Homo sapiens, UniProt P23458); experiment: Inhibition of JAK1 (unknown origin)
[13] = Half life in C57BL/6 mouse at 10 mg/kg, po by LC/MS-MS analysis; assay type: ADME, organism-based; details: in vivo
[14] = biological target: T2, Non-receptor tyrosine-protein kinase TYK2; experiment: Binding affinity to TYK2 JH2 (unknown origin)
[15] = Oral bioavailability in C57BL/6 mouse at 10 mg/kg by LC/MS-MS analysis; assay type: ADME, organism-based; details: in vivo
[16] = biological target: T2, Non-receptor tyrosine-protein kinase TYK2; experiment: Inhibition of TYK2 signal transduction pathway in human PBMC cells assessed as IFNalpha induced p-STAT5 level; assay type: cell-based
[17] = biological target: T5, Tyrosine-protein kinase JAK1; experiment: Inhibition of JAK1 (unknown origin) using ULight - JAK (Tyr1023) substrate incubated for 60 mins in presence of ATP by envision plate reader based analysis
[18] = biological target: T4, Tyrosine-protein kinase JAK3; experiment: Inhibition of JAK3 (unknown origin) using ULight - JAK (Tyr1023) substrate incubated for 60 mins in presence of ATP by envision plate reader based analysis
[19] = Inhibition of IFNalpha induced STAT phosphorylation in HEK293 cells by Western blotting analysis; assay type: cell-based; details: Homo sapiens
Janus Kinase (JAK) = Janus Kinase (JAK) (Homo sapiens, UniProt P52333+P23458+O60674+P29597); experiment: Inhibition of JAK JH1 (unknown origin); assay type: protein assay
[20] = Inhibition of IL-2 induced STAT phosphorylation in HEK293 cells by Western blotting analysis; assay type: cell-based; details: Homo sapiens
[21] = Inhibition of IL-23 induced STAT phosphorylation in HEK293 cells by Western blotting analysis; assay type: cell-based; details: Homo sapiens
[22] = Inhibition of IFN-gamma induced STAT phosphorylation in HEK293 cells by Western blotting analysis; assay type: cell-based; details: Homo sapiens
[23] = biological target: T2, Non-receptor tyrosine-protein kinase TYK2; experiment: Inhibition of TYK2 in HEK-Blue IL-23 cells assessed as reduction in SEAP reporter gene expression by Quanti-blue assay; assay type: cell-based
[24] = biological target: T2, Non-receptor tyrosine-protein kinase TYK2; experiment: Inhibition of TYK2 signal transduction pathway in human TF-1 cells assessed as reduction in GM-CSF induced p-STAT5 level; assay type: cell-based
[25] = biological target: T5, Tyrosine-protein kinase JAK1; experiment: Inhibition of JAK1 JH2 (unknown origin)
JAK2/TYK2 [26] = biological target: T1, JAK2/TYK2; experiment: Inhibition of JAK2/TYK2 signal transduction pathway in human NK92 cells assessed as IL-12 induced STAT4 phosphorylation; assay type: cell-based
[27] = biological target: T2, Non-receptor tyrosine-protein kinase TYK2; experiment: Inhibition of TYK2 JH2 (561 to 860 residues) (unknown origin) by HTRF assay
[28] = Cmax in ICR mouse at 30 mg/kg, IG by LC/MS/MS analysis; assay type: ADME, organism-based; parameters: dose 30 mg/kg, route ig; details: in vivo, po
[29] = Half life in ICR mouse at 30 mg/kg, IG by LC/MS/MS analysis; assay type: ADME, organism-based; details: in vivo, po
[30] = Metabolic stability in human liver microsomes assessed as compound remaining after 60 mins; assay type: ADME, Microsome; details: read-out: Stability

T2 sequence (P29597 whole entry, the tested form may be a part): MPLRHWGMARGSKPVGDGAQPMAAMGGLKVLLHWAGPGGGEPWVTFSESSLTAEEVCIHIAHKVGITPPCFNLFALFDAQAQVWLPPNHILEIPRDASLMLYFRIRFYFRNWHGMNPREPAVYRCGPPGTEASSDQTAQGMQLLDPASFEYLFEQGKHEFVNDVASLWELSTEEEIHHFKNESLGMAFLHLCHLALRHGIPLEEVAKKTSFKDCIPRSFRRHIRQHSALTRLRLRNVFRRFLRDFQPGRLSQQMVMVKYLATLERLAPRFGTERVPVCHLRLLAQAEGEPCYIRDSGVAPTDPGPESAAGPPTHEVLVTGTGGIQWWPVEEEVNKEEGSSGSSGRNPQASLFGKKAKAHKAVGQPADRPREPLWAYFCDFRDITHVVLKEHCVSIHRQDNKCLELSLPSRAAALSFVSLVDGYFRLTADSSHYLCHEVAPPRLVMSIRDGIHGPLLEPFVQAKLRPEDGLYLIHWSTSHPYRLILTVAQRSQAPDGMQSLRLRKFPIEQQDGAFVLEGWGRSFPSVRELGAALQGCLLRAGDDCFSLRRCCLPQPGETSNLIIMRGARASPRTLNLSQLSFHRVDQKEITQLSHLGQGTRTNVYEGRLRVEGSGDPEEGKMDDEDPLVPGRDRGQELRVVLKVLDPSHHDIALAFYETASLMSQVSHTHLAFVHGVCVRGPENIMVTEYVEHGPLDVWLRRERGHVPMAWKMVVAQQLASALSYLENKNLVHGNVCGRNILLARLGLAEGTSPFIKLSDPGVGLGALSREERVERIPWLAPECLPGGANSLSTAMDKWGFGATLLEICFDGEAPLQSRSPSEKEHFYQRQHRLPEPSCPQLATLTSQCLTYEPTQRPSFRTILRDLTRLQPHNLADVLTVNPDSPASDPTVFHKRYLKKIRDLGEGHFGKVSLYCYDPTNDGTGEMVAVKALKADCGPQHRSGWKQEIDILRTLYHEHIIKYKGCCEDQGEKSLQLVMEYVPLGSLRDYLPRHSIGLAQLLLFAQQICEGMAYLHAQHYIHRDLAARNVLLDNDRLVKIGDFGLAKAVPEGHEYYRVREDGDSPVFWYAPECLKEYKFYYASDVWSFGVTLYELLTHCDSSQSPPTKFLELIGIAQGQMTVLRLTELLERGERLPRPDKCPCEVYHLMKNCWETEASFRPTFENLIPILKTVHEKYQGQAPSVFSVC
T3 sequence (O60674 whole entry): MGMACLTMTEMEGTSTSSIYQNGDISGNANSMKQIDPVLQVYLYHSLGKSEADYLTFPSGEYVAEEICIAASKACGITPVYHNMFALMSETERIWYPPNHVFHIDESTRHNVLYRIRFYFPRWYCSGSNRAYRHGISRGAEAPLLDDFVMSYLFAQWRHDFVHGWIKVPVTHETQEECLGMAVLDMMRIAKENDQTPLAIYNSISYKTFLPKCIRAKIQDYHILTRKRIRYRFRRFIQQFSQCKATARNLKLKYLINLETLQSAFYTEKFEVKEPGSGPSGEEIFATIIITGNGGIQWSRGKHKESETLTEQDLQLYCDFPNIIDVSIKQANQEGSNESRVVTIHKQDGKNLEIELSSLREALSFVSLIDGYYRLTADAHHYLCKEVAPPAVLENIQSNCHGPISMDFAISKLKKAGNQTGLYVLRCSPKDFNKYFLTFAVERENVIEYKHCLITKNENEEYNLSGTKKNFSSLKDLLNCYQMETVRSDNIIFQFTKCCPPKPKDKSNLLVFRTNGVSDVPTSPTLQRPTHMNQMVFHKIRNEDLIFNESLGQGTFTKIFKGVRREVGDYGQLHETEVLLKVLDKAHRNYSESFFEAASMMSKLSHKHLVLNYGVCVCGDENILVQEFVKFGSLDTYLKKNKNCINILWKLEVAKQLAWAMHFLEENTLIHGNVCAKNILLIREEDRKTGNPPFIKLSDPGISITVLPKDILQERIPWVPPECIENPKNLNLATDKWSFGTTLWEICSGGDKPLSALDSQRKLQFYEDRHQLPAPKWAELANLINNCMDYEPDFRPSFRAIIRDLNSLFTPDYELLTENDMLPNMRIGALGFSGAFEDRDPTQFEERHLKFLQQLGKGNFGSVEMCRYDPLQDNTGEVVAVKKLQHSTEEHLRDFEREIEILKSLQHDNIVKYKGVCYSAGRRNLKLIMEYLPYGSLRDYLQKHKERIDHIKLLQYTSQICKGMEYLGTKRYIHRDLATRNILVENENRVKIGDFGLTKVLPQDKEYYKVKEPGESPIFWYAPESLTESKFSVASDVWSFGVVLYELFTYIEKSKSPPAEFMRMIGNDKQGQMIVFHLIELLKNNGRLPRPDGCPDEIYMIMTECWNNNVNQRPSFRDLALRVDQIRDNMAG
T1 sequence (O60674 whole entry): as above
T1 sequence (P29597 whole entry): as the sequence (P29597 whole entry, the tested form may be a part) above
T5 sequence (P23458 whole entry): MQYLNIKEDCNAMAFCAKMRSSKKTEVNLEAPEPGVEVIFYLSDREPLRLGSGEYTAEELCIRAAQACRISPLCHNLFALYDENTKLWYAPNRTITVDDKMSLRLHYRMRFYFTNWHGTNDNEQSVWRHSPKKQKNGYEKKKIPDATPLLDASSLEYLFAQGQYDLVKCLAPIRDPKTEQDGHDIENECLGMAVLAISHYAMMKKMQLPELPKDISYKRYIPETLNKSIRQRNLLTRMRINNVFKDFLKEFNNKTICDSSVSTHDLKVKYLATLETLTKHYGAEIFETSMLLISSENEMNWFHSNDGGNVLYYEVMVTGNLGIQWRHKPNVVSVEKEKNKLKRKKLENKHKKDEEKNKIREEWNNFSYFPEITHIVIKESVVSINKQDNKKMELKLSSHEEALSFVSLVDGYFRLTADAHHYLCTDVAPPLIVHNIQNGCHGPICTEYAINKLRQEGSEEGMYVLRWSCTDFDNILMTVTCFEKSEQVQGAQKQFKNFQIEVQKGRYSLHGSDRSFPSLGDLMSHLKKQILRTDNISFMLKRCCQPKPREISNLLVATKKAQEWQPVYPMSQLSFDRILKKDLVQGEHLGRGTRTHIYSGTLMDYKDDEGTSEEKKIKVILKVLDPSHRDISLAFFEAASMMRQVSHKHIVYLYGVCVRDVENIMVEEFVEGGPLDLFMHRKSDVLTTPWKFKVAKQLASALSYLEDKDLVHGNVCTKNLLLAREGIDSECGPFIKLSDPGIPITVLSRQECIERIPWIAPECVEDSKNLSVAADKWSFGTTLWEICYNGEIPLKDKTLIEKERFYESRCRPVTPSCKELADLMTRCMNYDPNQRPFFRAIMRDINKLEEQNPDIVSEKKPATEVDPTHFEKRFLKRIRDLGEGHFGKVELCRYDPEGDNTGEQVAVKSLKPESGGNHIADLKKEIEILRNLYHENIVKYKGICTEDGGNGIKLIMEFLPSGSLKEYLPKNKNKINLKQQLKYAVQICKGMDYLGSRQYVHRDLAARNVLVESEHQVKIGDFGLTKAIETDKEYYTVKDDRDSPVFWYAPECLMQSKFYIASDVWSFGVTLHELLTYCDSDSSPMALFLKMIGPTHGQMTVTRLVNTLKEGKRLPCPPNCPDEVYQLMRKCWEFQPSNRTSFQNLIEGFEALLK
JAK1/TYK2, sequence (P23458 whole entry): as above
JAK1/TYK2, sequence (P29597 whole entry): as the sequence (P29597 whole entry, the tested form may be a part) above

IC50 (JAK2/TYK2 [1]): 9 nM
IC50 (JAK2/TYK2 [2]): 3 nM
Ki [3]: 2 nM
Structure (SMILES): CO[C@@]1(c2cc(C)cc(-n3nc(-c4cnn(C)c4)c4cnc(NC(N)=O)cc43)n2)CCOC1

IC50 (JAK2/TYK2 [1]): 8 nM
IC50 (JAK2/TYK2 [2]): 2 nM
Ki [3]: 2 nM
Structure (SMILES): CO[C@@]1(c2cc(C)cc(-c3cc(C)n4cnc(NC(N)=O)cc34)n2)CCOC1

EC50 [4]: > 10000 nM
EC50 (JAK2/TYK2 [5]): < 1 nM
EC50 (JAK1/TYK2): < 10 nM
Structure (SMILES): [2H]C([2H])([2H])Nc1cc(Nc2cc(Cl)cn(-c3ccccn3)c2=O)nn2c(C(=O)N[C@@H]3C[C@@H]3F)cnc12

IC50 [6]: > 10000 nM
IC50 [7]: > 10000 nM
AUC [8]: 10900 ng·h/mL
Cmax [9]: 2060 ng/mL
IC50 [10]: 0.6 nM
Structure (SMILES): CO[C@@]1(c2cc(C)cc(-n3cc(C4CC4)c4cnc(NC(C)=O)cc43)n2)CCOC1

IC50 [6]: > 10000 nM
IC50 [7]: > 10000 nM
AUC [8]: 16600 ng·h/mL
IC50 [11]: > 10000 nM
Cmax [9]: 2740 ng/mL
IC50 [12]: > 10000 nM
IC50 [10]: 2.1 nM
Structure (SMILES): CO[C@@]1(c2cc(C)cc(-n3cc(C4CCN(C)CC4)c4cnc(NC(N)=O)cc43)n2)CCOC1

half-life [13]: 3.01 h
IC50 [6]: > 10000 nM
IC50 [7]: > 10000 nM
Kd [14]: < 1 nM
bioavailability [15]: 147%
IC50 [11]: > 10000 nM
IC50 [12]: > 10000 nM
IC50 [16]: ≤ 50 nM
Structure (SMILES): [2H]C([2H])([2H])NC(=O)c1nnc2cc1Nc1cc(cc(-c3ccn(C)n3)c1OC)CCOCc1cccc(n1)N2

IC50 [17]: > 5000 nM
IC50 [18]: > 5000 nM
Structure (SMILES): Cn1cc(-c2cn3ncnc3c(-c3ccn([C@]4(CC#N)C[C@@H](C#N)C4)c3)n2)cn1

half-life [13]: 2.26 h
IC50 [6]: > 10000 nM
IC50 [7]: > 10000 nM
Kd [14]: < 1 nM
bioavailability [15]: 148%
IC50 [11]: > 10000 nM
IC50 [12]: > 10000 nM
IC50 [16]: ≤ 50 nM
Structure (SMILES): CNC(=O)c1cnc2cc1Nc1cc(cc(-c3ccn(C)n3)c1OC)CCOCc1nc(ccc1C)N2

IC50 [19]: < 10000 nM
IC50 (Janus Kinase (JAK)): > 90000 nM
IC50 [20]: > 90000 nM
IC50 [21]: < 10000 nM
IC50 [22]: > 90000 nM
Structure (SMILES): COc1cccc(-n2[nH]c(=O)c3cnc(Nc4cc(C)nc(C)n4)cc32)c1F

IC50 [19]: < 10000 nM
IC50 (Janus Kinase (JAK)): > 90000 nM
IC50 [20]: > 90000 nM
IC50 [21]: < 10000 nM
IC50 [22]: > 90000 nM
Structure (SMILES): N#Cc1ccc(-n2[nH]c(=O)c3cnc(Nc4ccc(F)cn4)cc32)cc1Cl

IC50 [23]: < 1 nM
Structure (SMILES): [2H]C([2H])([2H])NC(=O)c1nnc(NC(=O)[C@H]2CC23CC3)cc1Nc1ncc(OCCOC)cc1S(C)(=O)=O

Structure (SMILES): COCCOc1cc(Nc2cc(NC(C)=O)ncc2-c2ccccn2)nc(S(C)(=O)=O)c1
IC50 [24]: > 10000 nM
IC50 [25]: 1.2 nM
IC50 (JAK2/TYK2 [26]): 1.21 nM
IC50 [27]: 0.018 nM

Cmax [28]: 12500 ng/mL
half-life [29]: 6.26 h
remaining at 1 h [30]: 100%
Structure (SMILES): [2H]C([2H])([2H])NC(=O)c1nnc(NC(=O)C2CC2)cc1Nc1cccc(-c2ncc(-c3cccnc3C(F)(F)F)cn2)c1OC
